Measured values taken from the supplement of paper PMC10307832.

Key:
Test in all cases: relative viability (nuclei count vs DMSO), 5 days (fraction); higher = more cells survive
AT9283 + Lapatinib = compound: O=C(Nc1c[nH]nc1-c1nc2ccc(CN3CCOCC3)cc2[nH]1)NC1CC1 [AT9283] + CS(=O)(=O)CCNCc1ccc(-c2ccc3ncnc(Nc4ccc(OCc5cccc(F)c5)c(Cl)c4)c3c2)o1 [Lapatinib] (partner 2 µM)
Outline: (§1)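 Values are medians from duplicate plates. Each reflects relative viability, defined as the nuclei count of treated wells over that of vehicle wells. Lung cancer cell lines in 1536-well plates were pin-tool dosed one day after seeding with one drug alone or with a fixed anchor-drug dose plus five library-drug doses (not always all listed) in √10 steps, then fixed, stained and imaged at 4× after 5 days.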

AT9283 + Decitabine = compound: O=C(Nc1c[nH]nc1-c1nc2ccc(CN3CCOCC3)cc2[nH]1)NC1CC1 [AT9283] + Nc1ncn([C@H]2C[C@H](O)[C@@H](CO)O2)c(=O)n1 [Decitabine] (partner 2 µM)
Outline: as §1

Erlotinib + AZD7762 = compound: C#Cc1cccc(Nc2ncnc3cc(OCCOC)c(OCCOC)cc23)c1 [Erlotinib] + NC(=O)Nc1cc(-c2cccc(F)c2)sc1C(=O)N[C@H]1CCCNC1 [AZD7762] (partner 0.2 µM)
Outline: as §1

Erlotinib + Luminespib = compound: C#Cc1cccc(Nc2ncnc3cc(OCCOC)c(OCCOC)cc23)c1 [Erlotinib] + CCNC(=O)c1noc(-c2cc(C(C)C)c(O)cc2O)c1-c1ccc(CN2CCOCC2)cc1 [Luminespib] (partner 0.01 µM)
Outline: as §1

AT9283 + Luminespib = compound: O=C(Nc1c[nH]nc1-c1nc2ccc(CN3CCOCC3)cc2[nH]1)NC1CC1 [AT9283] + CCNC(=O)c1noc(-c2cc(C(C)C)c(O)cc2O)c1-c1ccc(CN2CCOCC2)cc1 [Luminespib] (partner 0.01 µM)
Outline: as §1

| Cell Line | relative viability (AT9283 + Lapatinib; first compound 0.003 µM) | relative viability (AT9283 + Lapatinib; first compound 0.03 µM) | relative viability (AT9283 + Lapatinib; first compound 0.09487 µM) | relative viability (AT9283 + Lapatinib; first compound 0.3 µM) | relative viability (AT9283 + Decitabine; first compound 0.003 µM) | relative viability (AT9283 + Decitabine; first compound 0.03 µM) | relative viability (AT9283 + Decitabine; first compound 0.09487 µM) | relative viability (AT9283 + Decitabine; first compound 0.3 µM) | relative viability (Erlotinib + AZD7762; first compound 0.02 µM) | relative viability (Erlotinib + AZD7762; first compound 0.2 µM) | relative viability (Erlotinib + AZD7762; first compound 0.6325 µM) | relative viability (Erlotinib + AZD7762; first compound 2 µM) | relative viability (Erlotinib + Luminespib; first compound 0.02 µM) | relative viability (Erlotinib + Luminespib; first compound 0.2 µM) | relative viability (Erlotinib + Luminespib; first compound 0.6325 µM) | relative viability (Erlotinib + Luminespib; first compound 2 µM) | relative viability (AT9283 + Luminespib; first compound 0.003 µM) | relative viability (AT9283 + Luminespib; first compound 0.03 µM) | relative viability (AT9283 + Luminespib; first compound 0.09487 µM) | relative viability (AT9283 + Luminespib; first compound 0.3 µM) |
| --- | --- | --- | --- | --- | --- | --- | --- | --- | --- | --- | --- | --- | --- | --- | --- | --- | --- | --- | --- | --- |
| NCI-H322M | 0.548 | 0.272 | 0.32 | 0.335 | 0.775 | 0.531 | 0.588 | 0.462 | 0.464 | 0.481 | 0.371 | 0.395 | 0.806 | 0.595 | 0.528 | 0.443 | 0.864 | 0.541 | 0.405 | 0.41 |
| NCI-H358 | 0.413 | 0.192 | 0.176 | 0.16 | 0.219 | 0.143 | 0.102 | 0.0856 | 0.537 | 0.361 | 0.429 | 0.201 | 0.262 | 0.225 | 0.31 | 0.12 | 0.4 | 0.147 | 0.166 | 0.129 |
| NCI-H460 | 1.05 | 0.0247 | 0.0158 | 0.0301 | 0.434 | 0.466 | 0.24 | 0.078 | 0.613 | 0.734 | 0.631 | 0.629 | 0.03 | 0.0268 | 0.033 | 0.0356 | 0.0366 | 0.041 | 0.0309 | 0.0299 |
| NCI-H596 | 0.845 | 0.884 | 0.623 | 0.404 | 1.07 | 0.946 | 0.934 | 0.783 | 1.04 | 0.954 | 1.05 | 0.87 | 1.07 | 0.848 | 0.893 | 0.878 | 1.04 | 1.08 | 0.819 | 0.725 |
